pKi: −log10 of the molar value.
Columns and labels:
[1] = dog, mdckii-le
Description: (§1) Intrinsic absorptive permeability from basolateral side to apical side of dog RRCK cells

[2] = dog, mdckii-le; remark: listed apart in the source
Description: (§2) Intrinsic absorptive permeability from apical side to basolateral side of dog RRCK cells

[3] = physchem; conditions: octanol/water, pH 7.4
[4] = in vitro; conditions: human, liver microsomes
Description: Intrinsic clearance in human liver microsomes

[5] = biological target: Proto-oncogene tyrosine-protein kinase ROS (Homo sapiens, UniProt P08922, G2032R)
[6] = in vivo; conditions: rat, CSF / free plasma
Description: Ratio of AUC in CSF to free plasma in rat

[7] = in vivo; conditions: rat, brain / plasma
Description: Ratio of fAUC in brain to plasma in rat

[8] = in vitro; conditions: dog, MDCK
Description: as §1

[9] = in vitro; conditions: dog, MDCK; remark: listed apart in the source
Description: as §2

Chain of Proto-oncogene tyrosine-protein kinase ROS (P08922 28-2347 G2032R limits assumed): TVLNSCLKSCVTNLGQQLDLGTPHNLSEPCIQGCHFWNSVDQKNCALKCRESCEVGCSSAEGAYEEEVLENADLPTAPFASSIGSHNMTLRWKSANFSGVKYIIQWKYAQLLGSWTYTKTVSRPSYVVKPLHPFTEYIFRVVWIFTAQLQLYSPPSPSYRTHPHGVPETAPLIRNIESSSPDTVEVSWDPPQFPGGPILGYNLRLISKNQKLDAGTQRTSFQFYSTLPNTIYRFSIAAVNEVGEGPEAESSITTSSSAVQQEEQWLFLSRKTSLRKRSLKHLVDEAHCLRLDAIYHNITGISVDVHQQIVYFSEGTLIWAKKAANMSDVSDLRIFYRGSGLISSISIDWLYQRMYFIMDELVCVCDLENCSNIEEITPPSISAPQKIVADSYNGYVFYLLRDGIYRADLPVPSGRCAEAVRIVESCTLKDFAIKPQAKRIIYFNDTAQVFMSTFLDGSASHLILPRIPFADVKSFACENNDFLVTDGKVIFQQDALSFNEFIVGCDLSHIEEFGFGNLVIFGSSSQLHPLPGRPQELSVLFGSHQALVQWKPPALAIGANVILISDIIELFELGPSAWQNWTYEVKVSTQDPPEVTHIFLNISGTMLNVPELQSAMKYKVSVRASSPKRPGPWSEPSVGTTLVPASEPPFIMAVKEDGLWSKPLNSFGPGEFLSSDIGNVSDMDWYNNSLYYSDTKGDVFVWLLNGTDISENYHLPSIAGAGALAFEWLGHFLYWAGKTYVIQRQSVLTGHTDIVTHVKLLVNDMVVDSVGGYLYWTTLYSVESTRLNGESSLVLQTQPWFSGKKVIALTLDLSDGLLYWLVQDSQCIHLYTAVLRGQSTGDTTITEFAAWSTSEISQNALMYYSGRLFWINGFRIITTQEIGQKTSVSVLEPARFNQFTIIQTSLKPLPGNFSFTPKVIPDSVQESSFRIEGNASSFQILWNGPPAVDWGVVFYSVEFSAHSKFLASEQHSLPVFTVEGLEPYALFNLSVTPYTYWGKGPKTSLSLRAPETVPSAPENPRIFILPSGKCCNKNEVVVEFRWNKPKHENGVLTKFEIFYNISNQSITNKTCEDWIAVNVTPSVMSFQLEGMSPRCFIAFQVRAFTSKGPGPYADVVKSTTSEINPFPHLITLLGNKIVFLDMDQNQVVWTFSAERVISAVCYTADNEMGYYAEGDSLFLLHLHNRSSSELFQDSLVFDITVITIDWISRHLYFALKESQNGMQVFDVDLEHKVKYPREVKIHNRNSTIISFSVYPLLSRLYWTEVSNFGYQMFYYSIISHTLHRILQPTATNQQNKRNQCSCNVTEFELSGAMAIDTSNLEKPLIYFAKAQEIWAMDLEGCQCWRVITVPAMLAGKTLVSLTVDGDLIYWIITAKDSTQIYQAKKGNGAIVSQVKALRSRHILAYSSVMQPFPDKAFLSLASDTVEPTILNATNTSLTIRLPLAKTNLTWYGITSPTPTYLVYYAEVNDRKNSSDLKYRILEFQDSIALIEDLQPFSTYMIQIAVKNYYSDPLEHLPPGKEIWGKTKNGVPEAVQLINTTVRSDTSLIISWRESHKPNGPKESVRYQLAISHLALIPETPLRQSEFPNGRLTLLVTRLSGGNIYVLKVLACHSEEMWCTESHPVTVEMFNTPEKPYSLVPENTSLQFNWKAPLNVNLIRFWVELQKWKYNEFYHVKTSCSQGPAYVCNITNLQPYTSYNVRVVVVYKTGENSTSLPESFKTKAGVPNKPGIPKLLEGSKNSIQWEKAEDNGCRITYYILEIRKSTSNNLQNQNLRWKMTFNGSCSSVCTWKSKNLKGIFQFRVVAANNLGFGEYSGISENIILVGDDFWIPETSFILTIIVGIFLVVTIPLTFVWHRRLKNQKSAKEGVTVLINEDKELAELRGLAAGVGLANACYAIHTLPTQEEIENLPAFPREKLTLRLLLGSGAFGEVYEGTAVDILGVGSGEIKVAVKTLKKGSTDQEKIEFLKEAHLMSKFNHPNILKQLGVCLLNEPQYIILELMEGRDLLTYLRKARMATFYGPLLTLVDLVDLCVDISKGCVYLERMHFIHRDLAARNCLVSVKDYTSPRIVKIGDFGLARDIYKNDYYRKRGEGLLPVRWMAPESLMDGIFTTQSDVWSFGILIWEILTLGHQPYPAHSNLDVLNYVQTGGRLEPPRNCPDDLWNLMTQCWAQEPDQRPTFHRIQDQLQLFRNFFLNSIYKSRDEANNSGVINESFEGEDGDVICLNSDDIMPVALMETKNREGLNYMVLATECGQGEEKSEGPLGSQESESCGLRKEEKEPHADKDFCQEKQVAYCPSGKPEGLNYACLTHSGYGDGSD

## Cc1[nH][n+](C)c2c1-c1cnc(N)c(c1)O[C@H](C)c1cc(F)ccc1C(=O)N(C)C2
[1]
  Papp: 28.3 ×10⁻⁶ cm/s
[2]
  Papp: 8.1 ×10⁻⁶ cm/s
[3]
  logD: 2.2
[4]
  CLint scaled: 8.6 mL/min/kg

## CCc1cc2c(cc1N1CCC(N3CCOCC3)CC1)C(C)(C)c1[nH]c3cc(C#N)ccc3c1C2=O [ALECTINIB]
[5]
  pKi: < 5.52

## C[C@H]1Oc2cc(cnc2N)-c2c(nn(C)c2C#N)CN(C)C(=O)c2ccc(F)cc21 [LORLATINIB]
[6]
  Kp uu: 0.31
[7]
  Kp uu: 0.21
[8]
  Papp B→A: 28 ×10⁻⁶ cm/s
[9]
  Papp A→B: 19.3 ×10⁻⁶ cm/s
